Like-named read-outs stand apart in the source and are kept apart here.
Tests used:
[1] = cited from earlier work
human PBMCs [2] = assay: Intracellular TFV-diphosphate in human PBMCs in vitro; settings: human PBMCs (IL-2/PHA) after incubation with 1 μM CMX157 for 48 hours
CEM-SS cells = assay: Toxicity XTT in CEM-SS cells
HIV-1IIIB = assay: Anti-HIV-1 cytoprotection assay (CEM-SS, XTT)
[3] = target: human OAT3 (organic anion transporter3) (Homo sapiens (Human), UniProt Q8TCC7); assay: hOAT3 mediated uptake in MDCK-II cells; type: in vitro ADME; settings: for Cellular Accumulation (control): control vector cells of hOAT3 test; for Cellular Accumulation (transporter): hOAT3 expressing MDCK-II cells
Protocol: Experimental: The uptake test system was comprised of a polarized monolayer of MCDK-II cells grown on permeable supports. The MDCK-II cells were treated to express the transporter of interest or treated with a control vector.
The uptake of 2 μM [^3H]-p-aminohippurate (PAH) and 0.75 μM [^3H]-estrone-3-sulfate (E-3-S) in the absence and presence of the reference inhibitor was determined by radiometric detection. The uptake of CMX157 and tenofovir was in the absence and presence of the reference inhibitor or 20% human serum was determined by LC/MS/MS. Experiments were performed under the same conditions for the cells expressing the transporter or those treated with the control vector.
Net Transporter Mediated Uptake=(Cellular accumulation in the presence of the transporter)−(Cellular accumulation in the absence of the transporter) Results: The net hOAT1 mediated uptake of tenofovir in the presence and absence of 100 μM probenecid or 20% human serum is shown in FIG. 8. The transport of tenofovir is inhibited by probenecid and relatively unchanged by the presence of 20% human serum. OAT3 also appeared to mediate the transport of tenofovir. The effect of probenecid, however, was minimal. The presence of 20% human serum in the OAT3 experiment reduced the OAT3 mediated transport of tenofovir.

[4] = target: human OAT1 (organic anion transporter1) (Homo sapiens (Human), UniProt Q4U2R8); assay: hOAT1 mediated uptake in MDCK-II cells; settings: for Cellular Accumulation (control): control vector cells of hOAT1 test; for Cellular Accumulation (transporter): hOAT1 expressing MDCK-II cells
human PBMCs [5] = settings: activated human PBMCs, 1 μM TFV; cited from earlier work
[6] = Phase I single dose study, plasma pharmacokinetics; type: in vivo, human; settings: plasma, mean
Protocol: The study was a randomized, blinded, dose escalation trial to evaluate safety, tolerability, and pharmacokinetics. Healthy volunteers in each cohort (6 active/2 placebo) received a single dose of 25, 50, 100, 200 or 400 mg. An additional cohort received a standard dose of Viread for comparison of TFV-PP levels. For tenofovir anabolite analysis, PBMCs were lysed with 70% ice cold methanol and centrifuged; supernatants were analyzed using LC/MS/MS. The clinical samples were split into two aliquots. One aliquot was used for analysis of CMX157; following addition of an internal standard, these samples were evaporated to dryness prior to reconstitution and analysis. The second aliquot was for analysis of TFV, TFV-monophosphate and TFV-diphosphate; following addition of internal standards, samples were vortexed and centrifuged prior to analysis.

[7] = Human immunodeficiency virus 1, IIIB, CEM-SS, 144 h, read-out: CEMSS/IIIB EC50
[8] = hOAT3, substrate alone (E3S 0.75 μM)

CC(Cn1cnc2c(N)ncnc21)OCP(=O)(O)OP(=O)(O)OP(=O)(O)O (stereo in doubt) [TFV-PP, tenofovir-diphosphate]
median human TFV-PP ([1]; Kiser et al. JAIDS 2008:47): 0.076 pmol/10^6
in vitro intracellular half-life of TFV-PP (t1/2) (human PBMCs [2]): 79.2 h

Cc1cn([C@H]2C[C@H](N=[N+]=[N-])[C@@H](CO)O2)c(=O)[nH]c1=O [AZT, 3′-azido-2′,3′-dideoxythymidine, reference compound]
CEMSS TC50 (CEM-SS cells): >0.1 µM
EC50 (HIV-1IIIB; Human immunodeficiency virus 1, IIIB, CEM-SS): 0.003 µM
EC50 (HIV-1IIIB; [7]): 0.003 µM
Therapeutic Index (HIV-1IIIB; TC50/EC50, CEM-SS, HIV-1 IIIB): >33.3

CCCCCCCCCCCCCCCCOCCCOP(=O)([O-])CO[C@H](C)Cn1cnc2c(N)ncnc21.[K+] [CMX157 K^+ salt]
CEMSS TC50 (CEM-SS cells): 5.2 µM
EC50 (HIV-1IIIB; CEM-SS cells, HIV-1 IIIB): < 0.03 µM
EC50 (HIV-1IIIB; read-out: CEMSS/IIIB EC50, CEM-SS cells, HIV-1 IIIB, 6 days, XTT): < 0.03 µM

C[C@H](Cn1cnc2c(N)ncnc21)OCP(=O)(O)OCCCO [CMX157-210]
CEMSS TC50 (CEM-SS cells): >10.0 µM
EC50 (HIV-1IIIB; [7]): > 10 µM

C[C@H](Cn1cnc2c(N)ncnc21)OCP(=O)(O)OCCCOCC(=O)O [CMX157-211]
CEMSS TC50 (CEM-SS cells): >10.0 µM
EC50 (HIV-1IIIB; [7]): > 10 µM

C[C@H](Cn1cnc2c(N)ncnc21)OCP(=O)(O)OCCCOCCCC(=O)O [CMX157-220]
CEMSS TC50 (CEM-SS cells): >10.0 µM
EC50 (HIV-1IIIB; [7]): > 10 µM

C[C@]12CC[C@@H]3c4ccc(OS(=O)(=O)O)cc4CC[C@H]3[C@@H]1CCC2=O [E3S, estrone-3-sulfate]
Cellular Accumulation (control) ([3]; substrate alone (E3S 0.75 μM)): 39.5 ± 11.6 pmol/min/cm^2
Net Transporter Mediated Cellular Accumulation [3, 8]: −8.72 pmol/min/cm^2
Cellular Accumulation (transporter) ([3]; substrate alone (E3S 0.75 μM)): 30.7 pmol/min/cm^2

C[C@H](Cn1cnc2c(N)ncnc21)OCP(=O)(O)O [Tenofovir, (R)-9-(2-phosphonylmethoxypropyl)adenine, reference compound]
Cellular Accumulation (control) ([3]; + 100 μM probenecid): 1.94 ± 0.345 pmol/min/cm^2
Cellular Accumulation (control) ([3]; + 20% human serum): 2.28 ± 1.24 pmol/min/cm^2
Cellular Accumulation (control) ([3]; substrate alone (E3S 0.75 μM)): 2.65 ± 1.96 pmol/min/cm^2
Net Transporter Mediated Cellular Accumulation ([3]; hOAT3, + 100 μM probenecid): 1.35 ± 0.364 pmol/min/cm^2
Net Transporter Mediated Cellular Accumulation ([3]; hOAT3, + 20% human serum): −0.292 ± 0.0591 pmol/min/cm^2
Net Transporter Mediated Cellular Accumulation [3, 8]: 1.03 ± 0.591 pmol/min/cm^2
Cellular Accumulation (transporter) ([3]; + 100 μM probenecid): 3.29 ± 0.364 pmol/min/cm^2
Cellular Accumulation (transporter) ([3]; + 20% human serum): 1.99 ± 0.0591 pmol/min/cm^2
Cellular Accumulation (transporter) ([3]; substrate alone (E3S 0.75 μM)): 3.68 ± 0.591 pmol/min/cm^2
substrate for human OAT1 ([4]; MDCK): appeared to be a substrate
Cellular Accumulation (control) ([4]; + 100 μM probenecid): 2.22 ± 0.995 pmol/min/cm^2
Cellular Accumulation (control) ([4]; + 20% human serum): 1.77 ± 1.13 pmol/min/cm^2
Cellular Accumulation (control) ([4]; substrate alone (PAH 2 μM)): 2.45 ± 0.197 pmol/min/cm^2
Net Transporter Mediated Cellular Accumulation ([4]; hOAT1, + 100 μM probenecid): 4.49 ± 1.46 pmol/min/cm^2
Net Transporter Mediated Cellular Accumulation ([4]; hOAT1, + 20% human serum): 20.0 ± 3.45 pmol/min/cm^2
Net Transporter Mediated Cellular Accumulation ([4]; hOAT1, substrate alone (PAH 2 μM)): 19.5 ± 4.04 pmol/min/cm^2
Cellular Accumulation (transporter) ([4]; + 100 μM probenecid): 6.71 ± 1.46 pmol/min/cm^2
Cellular Accumulation (transporter) ([4]; + 20% human serum): 21.8 ± 3.45 pmol/min/cm^2
Cellular Accumulation (transporter) ([4]; substrate alone (PAH 2 μM)): 21.9 ± 4.04 pmol/min/cm^2
Cmax ([1]; VIREAD package insert 2007): ~1000 nM
TFV-diphosphate produced (human PBMCs [5]): 50 fmoles per million cells
TFV AUCINF ([6]; single oral dose CMX157 200 mg): 283 ng·h/mL
TFV Cmax ([6]; single oral dose CMX157 200 mg): 16 ng/mL
TFV AUCINF ([6]; single oral dose CMX157 400 mg): 371 ng·h/mL
TFV Cmax ([6]; single oral dose CMX157 400 mg): 27 ng/mL
